How the values were obtained:
FLT3 mutants = assay: Hot-Spot kinase profiling, FLT3 mutants together; assay type: biochemical; conditions: eight FLT3 mutants, bound for all; read-out: IC50 against FLT3 mutants
Description: (§1) Activities of kinases were determined using Hot-SpotSM kinase assay which was performed by Reaction Biology Corp. (Malvern PA, USA) as described previously.

CDK4 = target: T1, CDK4 (Homo sapiens, UniProt P11802); assay: CDK4 kinase activity assay (Hot-Spot); assay type: biochemical; conditions: 10 μM ATP; mean ± SD, three independent experiments
T1 construct: purchased Reaction Biology Corp
Description: as §1

MV4-11 cells = assay: Cell apoptosis assay (Annexin V-FITC/PI, flow cytometry); assay type: cell-based, human; conditions: MV4-11, 2 μM, 24 h
Description: The apoptosis of MV4-11 cells was determined by Annexin V-FITC/PI assay. Annexin V binds to phosphatidylserine, which is exposed on the cell membrane and is one of the earliest indicators of cellular apoptosis. PI (Propidium Iodide) is used as a DNA stain for both flow cytometry to evaluate cell viability or DNA content in cell cycle analysis and microscopy to visualize the nucleus and other DNA containing organelles. It can be used to differentiate necrotic, apoptotic, and normal cells. Cells (2 × 10^5) were seeded in 6-well plate and were treated with varying concentrations of inhibitor for 24 h. MV4-11 cells were collected and incubated with FITC-conjugated Annexin V (Nanjing keyGen Biotech Company, Nanjing, China). The nuclei were then counterstained with PI. After the dual staining, the cells were screened by a FAC Scan flow cytometer (FACS Calibun, Becton Dickinson, Nanjing, China). The upper left corner of the quadrant represents debris, lower left are live cells, upper right are advanced apoptotic or necrotic cells and lower right are apoptotic cells.

BTK = target: T2, BTK (Homo sapiens, UniProt Q06187); assay: Hot-Spot kinase profiling; assay type: biochemical; conditions: read-out: % Enzyme Activity (Relative to DMSO Controls) BTK
T2 construct: purchased Reaction Biology Corp. (HotSpot kinase assay)
Description: as §1

FLT1/VEGFR1 = target: T3, FLT1/VEGFR1 (Homo sapiens, UniProt P17948); assay: Hot-Spot kinase profiling; assay type: biochemical
T3 construct: purchased Reaction Biology Corp
Description: as §1

Aurora B = target: T4, Aurora B (Homo sapiens, UniProt Q96GD4); assay: Hot-Spot kinase profiling; assay type: biochemical; conditions: read-out: % Enzyme Activity (Relative to DMSO Controls) Aurora B
T4 construct: purchased Reaction Biology Corp. (HotSpot kinase assay)
Description: as §1

BRAF = target: T5, BRAF (Homo sapiens, UniProt P15056); assay: Hot-Spot kinase profiling; assay type: biochemical; conditions: read-out: % Enzyme Activity (Relative to DMSO Controls) BRAF
T5 construct: purchased Reaction Biology Corp. (HotSpot kinase assay)
Description: as §1

CHK2 = target: T6, CHK2 (Homo sapiens, UniProt O96017); assay: Hot-Spot kinase profiling; assay type: biochemical; conditions: read-out: % Enzyme Activity (Relative to DMSO Controls) CHK2
T6 construct: purchased Reaction Biology Corp. (HotSpot kinase assay)
Description: as §1

CDK1/cyclin B = target: T7, CDK1/cyclin B (Homo sapiens, UniProt P06493); assay: Hot-Spot kinase profiling; assay type: biochemical
T7 construct: purchased Reaction Biology Corp
Description: as §1

JAK2 = target: T8, JAK2 (Homo sapiens, UniProt O60674); assay: Hot-Spot kinase profiling; assay type: biochemical; conditions: read-out: % Enzyme Activity (Relative to DMSO Controls) JAK2
T8 construct: purchased Reaction Biology Corp
Description: as §1

KDR/VEGFR2 = target: T9, KDR/VEGFR2 (Homo sapiens, UniProt P35968); assay: Hot-Spot kinase profiling; assay type: biochemical
T9 construct: purchased Reaction Biology Corp. (Malvern PA, USA)
Description: as §1

[1] = target: T10, FLT3 (Y591-V592insVDFREYEYD) (Homo sapiens, UniProt P36888, INS591VDFREYEYD); assay: Hot-Spot kinase profiling; assay type: biochemical
T10 construct: purchased Reaction Biology Corp
Description: as §1

CDK4/cyclin D1 = target: T11, CDK4/cyclin D1 (Homo sapiens, UniProt P11802); assay: Hot-Spot kinase profiling; assay type: biochemical
T11 construct: purchased Reaction Biology Corp
Description: as §1

CDK7/cyclin H = target: T12, CDK7/cyclin H (Homo sapiens, UniProt P50613); assay: Hot-Spot kinase profiling; assay type: biochemical
T12 construct: purchased Reaction Biology Corp
Description: as §1

CDK6/cyclin D1 = target: T13, CDK6/cyclin D1 (Homo sapiens, UniProt Q00534); assay: Hot-Spot kinase profiling; assay type: biochemical
T13 construct: purchased Reaction Biology Corp
Description: as §1

CDK2/cyclin A = target: T14, CDK2/cyclin A (Homo sapiens, UniProt P24941); assay: Hot-Spot kinase profiling; assay type: biochemical
T14 construct: purchased Reaction Biology Corp
Description: as §1

FLT3 (ITD)-W51 = target: T15, FLT3 (ITD)-W51 (Homo sapiens, UniProt P36888, DUP595-601); assay: Hot-Spot kinase profiling; assay type: biochemical
T15 construct: purchased Reaction Biology Corp
Description: as §1

ABL1 = target: T16, ABL1 (Homo sapiens, UniProt P00519); assay: Hot-Spot kinase profiling; assay type: biochemical; conditions: read-out: % Enzyme Activity (Relative to DMSO Controls) ABL1
T16 construct: purchased Reaction Biology Corp. (HotSpot kinase assay)
Description: as §1

ERK7/MAPK15 = target: T17, ERK7/MAPK15 (Homo sapiens, UniProt Q8TD08); assay: Hot-Spot kinase profiling; assay type: biochemical
T17 construct: purchased Reaction Biology Corp
Description: as §1

FGFR1 = target: T18, FGFR1 (Homo sapiens, UniProt P11362); assay: Hot-Spot kinase profiling; assay type: biochemical; conditions: read-out: % Enzyme Activity (Relative to DMSO Controls) FGFR1
T18 construct: purchased Reaction Biology Corp. (HotSpot kinase assay)
Description: as §1

GSK3β = target: T19, GSK3β (Homo sapiens, UniProt P49841); assay: Hot-Spot kinase profiling; assay type: biochemical
T19 construct: purchased Reaction Biology Corp
Description: as §1

JNK1 = target: T20, JNK1 (Homo sapiens, UniProt P45983); assay: Hot-Spot kinase profiling; assay type: biochemical; conditions: read-out: % Enzyme Activity (Relative to DMSO Controls) JNK1
T20 construct: purchased Reaction Biology Corp. (Malvern PA, USA)
Description: as §1

T17 sequence (Q8TD08 whole entry): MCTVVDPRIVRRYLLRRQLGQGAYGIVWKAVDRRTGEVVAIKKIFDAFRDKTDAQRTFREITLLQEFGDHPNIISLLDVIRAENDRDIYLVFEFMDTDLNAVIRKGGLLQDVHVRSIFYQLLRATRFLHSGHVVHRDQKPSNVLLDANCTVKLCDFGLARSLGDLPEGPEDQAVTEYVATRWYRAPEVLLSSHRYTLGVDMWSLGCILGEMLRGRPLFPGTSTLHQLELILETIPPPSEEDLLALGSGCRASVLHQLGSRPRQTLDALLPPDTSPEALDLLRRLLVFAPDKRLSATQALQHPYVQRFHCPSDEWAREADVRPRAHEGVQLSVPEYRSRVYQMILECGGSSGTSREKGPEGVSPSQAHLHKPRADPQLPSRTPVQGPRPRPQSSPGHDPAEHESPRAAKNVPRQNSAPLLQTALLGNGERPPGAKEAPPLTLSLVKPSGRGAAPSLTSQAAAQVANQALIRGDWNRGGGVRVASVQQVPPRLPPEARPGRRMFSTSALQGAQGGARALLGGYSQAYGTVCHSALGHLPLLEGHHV
T13 sequence (Q00534 whole entry): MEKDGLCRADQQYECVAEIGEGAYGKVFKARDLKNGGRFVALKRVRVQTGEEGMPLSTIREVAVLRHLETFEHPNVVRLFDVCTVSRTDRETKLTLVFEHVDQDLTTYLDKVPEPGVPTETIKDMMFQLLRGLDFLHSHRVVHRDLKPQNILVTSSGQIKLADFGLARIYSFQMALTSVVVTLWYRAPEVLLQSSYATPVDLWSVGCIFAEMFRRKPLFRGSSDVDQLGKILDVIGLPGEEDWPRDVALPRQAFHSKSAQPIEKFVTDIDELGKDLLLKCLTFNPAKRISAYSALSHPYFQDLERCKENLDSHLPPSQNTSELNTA
T13 sequence (P24385 whole entry partner): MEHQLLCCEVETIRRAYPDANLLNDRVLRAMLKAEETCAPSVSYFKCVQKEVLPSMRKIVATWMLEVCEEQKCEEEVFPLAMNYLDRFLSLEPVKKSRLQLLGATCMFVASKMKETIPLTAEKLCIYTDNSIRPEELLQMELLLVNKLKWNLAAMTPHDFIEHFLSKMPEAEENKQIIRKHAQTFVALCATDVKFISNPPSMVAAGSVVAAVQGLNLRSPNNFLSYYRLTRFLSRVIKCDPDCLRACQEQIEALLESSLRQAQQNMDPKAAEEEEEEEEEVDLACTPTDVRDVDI
T19 sequence (P49841 whole entry): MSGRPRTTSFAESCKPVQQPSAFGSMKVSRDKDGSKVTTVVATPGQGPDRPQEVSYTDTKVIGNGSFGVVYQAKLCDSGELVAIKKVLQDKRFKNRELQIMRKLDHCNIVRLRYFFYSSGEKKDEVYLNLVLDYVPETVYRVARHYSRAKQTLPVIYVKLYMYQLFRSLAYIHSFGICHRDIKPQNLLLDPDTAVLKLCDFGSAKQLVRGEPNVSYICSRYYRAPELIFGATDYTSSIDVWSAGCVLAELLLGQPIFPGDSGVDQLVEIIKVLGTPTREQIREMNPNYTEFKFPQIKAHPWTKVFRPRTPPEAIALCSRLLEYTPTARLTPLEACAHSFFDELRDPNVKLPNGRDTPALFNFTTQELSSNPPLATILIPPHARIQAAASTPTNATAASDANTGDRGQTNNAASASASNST
T3 sequence (P17948 27-1338): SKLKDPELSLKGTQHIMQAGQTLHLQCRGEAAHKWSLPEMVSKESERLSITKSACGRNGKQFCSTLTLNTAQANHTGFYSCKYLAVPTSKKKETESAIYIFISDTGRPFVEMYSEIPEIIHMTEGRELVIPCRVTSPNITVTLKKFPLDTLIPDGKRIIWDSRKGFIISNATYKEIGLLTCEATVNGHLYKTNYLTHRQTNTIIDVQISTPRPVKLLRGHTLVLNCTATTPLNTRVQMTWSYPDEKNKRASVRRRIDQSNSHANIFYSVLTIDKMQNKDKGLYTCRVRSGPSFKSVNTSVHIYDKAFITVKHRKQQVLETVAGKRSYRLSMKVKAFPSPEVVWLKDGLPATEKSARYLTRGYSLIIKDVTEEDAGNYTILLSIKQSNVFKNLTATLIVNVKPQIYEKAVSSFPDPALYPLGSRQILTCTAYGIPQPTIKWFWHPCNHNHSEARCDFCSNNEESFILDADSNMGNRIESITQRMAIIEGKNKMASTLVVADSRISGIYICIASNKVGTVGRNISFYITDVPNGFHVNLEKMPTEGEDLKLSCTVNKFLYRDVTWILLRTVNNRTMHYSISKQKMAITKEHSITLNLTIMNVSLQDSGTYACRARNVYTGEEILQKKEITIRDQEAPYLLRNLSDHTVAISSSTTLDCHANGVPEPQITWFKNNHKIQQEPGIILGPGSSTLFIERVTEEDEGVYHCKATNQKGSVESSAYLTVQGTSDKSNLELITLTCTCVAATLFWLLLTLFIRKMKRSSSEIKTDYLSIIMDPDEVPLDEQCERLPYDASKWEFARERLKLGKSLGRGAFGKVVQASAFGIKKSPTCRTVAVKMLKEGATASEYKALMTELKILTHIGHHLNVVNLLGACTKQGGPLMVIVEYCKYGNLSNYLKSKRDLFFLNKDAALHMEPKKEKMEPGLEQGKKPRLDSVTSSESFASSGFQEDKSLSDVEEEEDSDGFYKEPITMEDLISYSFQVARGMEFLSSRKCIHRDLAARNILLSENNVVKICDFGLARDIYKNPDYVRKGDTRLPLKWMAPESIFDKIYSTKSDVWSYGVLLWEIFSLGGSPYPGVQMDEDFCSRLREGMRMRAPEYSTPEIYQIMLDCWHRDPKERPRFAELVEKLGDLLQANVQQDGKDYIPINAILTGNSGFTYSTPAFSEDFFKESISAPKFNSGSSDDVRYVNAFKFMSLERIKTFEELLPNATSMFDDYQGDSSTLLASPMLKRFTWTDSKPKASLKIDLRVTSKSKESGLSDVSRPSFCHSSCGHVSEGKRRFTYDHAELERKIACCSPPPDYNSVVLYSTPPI
T9 sequence (P35968 20-1356): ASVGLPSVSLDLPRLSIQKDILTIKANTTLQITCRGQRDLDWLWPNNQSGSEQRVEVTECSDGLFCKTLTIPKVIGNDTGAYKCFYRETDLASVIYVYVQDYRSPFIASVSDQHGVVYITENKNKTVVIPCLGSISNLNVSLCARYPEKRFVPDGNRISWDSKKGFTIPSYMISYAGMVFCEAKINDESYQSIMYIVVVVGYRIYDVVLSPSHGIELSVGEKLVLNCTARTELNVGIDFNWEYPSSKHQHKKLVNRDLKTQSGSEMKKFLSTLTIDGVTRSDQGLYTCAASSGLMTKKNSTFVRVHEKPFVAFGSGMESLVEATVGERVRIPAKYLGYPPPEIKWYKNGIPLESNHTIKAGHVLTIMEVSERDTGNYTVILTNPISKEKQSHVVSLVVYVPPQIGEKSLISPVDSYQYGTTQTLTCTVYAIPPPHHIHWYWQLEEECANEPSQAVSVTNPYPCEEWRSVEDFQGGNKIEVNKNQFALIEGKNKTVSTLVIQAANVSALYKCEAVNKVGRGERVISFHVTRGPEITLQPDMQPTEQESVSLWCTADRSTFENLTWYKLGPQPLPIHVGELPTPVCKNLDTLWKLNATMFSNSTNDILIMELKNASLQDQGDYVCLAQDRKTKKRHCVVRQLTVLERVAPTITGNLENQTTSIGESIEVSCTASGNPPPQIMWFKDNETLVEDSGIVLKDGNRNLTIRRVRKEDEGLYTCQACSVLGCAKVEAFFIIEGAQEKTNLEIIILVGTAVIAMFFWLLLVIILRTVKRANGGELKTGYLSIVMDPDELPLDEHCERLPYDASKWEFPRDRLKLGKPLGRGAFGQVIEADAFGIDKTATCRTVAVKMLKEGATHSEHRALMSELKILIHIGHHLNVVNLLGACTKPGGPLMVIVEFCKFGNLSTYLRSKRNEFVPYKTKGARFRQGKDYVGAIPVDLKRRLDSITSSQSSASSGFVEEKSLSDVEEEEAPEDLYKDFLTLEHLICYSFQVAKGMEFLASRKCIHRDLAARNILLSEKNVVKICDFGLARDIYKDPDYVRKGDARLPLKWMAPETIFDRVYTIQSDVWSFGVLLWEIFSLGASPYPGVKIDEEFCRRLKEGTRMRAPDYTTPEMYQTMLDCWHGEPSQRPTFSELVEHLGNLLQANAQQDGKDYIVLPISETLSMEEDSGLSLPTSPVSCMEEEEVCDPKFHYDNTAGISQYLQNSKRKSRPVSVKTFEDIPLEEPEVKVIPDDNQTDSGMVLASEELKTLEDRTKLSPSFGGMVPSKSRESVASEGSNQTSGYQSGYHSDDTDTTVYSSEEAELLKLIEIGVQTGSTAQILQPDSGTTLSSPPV
T7 sequence (P06493 whole entry): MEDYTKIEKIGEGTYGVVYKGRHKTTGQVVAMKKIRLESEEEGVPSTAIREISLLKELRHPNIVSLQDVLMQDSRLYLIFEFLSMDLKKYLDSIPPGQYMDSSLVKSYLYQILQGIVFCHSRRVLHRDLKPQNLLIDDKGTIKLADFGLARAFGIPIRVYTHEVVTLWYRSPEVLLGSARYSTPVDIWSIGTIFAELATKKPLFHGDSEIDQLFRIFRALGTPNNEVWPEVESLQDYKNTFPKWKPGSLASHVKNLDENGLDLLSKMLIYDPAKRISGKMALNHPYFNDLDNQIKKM
T7 sequence (P14635 whole entry partner): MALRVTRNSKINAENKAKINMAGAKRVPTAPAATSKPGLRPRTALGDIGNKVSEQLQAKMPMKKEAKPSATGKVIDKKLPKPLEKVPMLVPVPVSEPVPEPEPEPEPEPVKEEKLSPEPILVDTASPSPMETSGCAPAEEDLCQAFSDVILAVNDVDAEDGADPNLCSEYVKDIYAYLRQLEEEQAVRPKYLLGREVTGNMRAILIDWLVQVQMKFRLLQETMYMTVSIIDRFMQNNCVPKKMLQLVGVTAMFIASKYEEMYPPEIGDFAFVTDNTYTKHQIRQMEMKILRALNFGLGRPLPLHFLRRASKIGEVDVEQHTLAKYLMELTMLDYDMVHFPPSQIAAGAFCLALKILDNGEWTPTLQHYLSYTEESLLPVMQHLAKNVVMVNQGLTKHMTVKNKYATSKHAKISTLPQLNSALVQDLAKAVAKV

## O=C(Nc1ccc(N2CCNCC2)cc1)c1n[nH]cc1Nc1ncnc2sc3c(c12)CCC3 [Compound 8t]
FLT3 mutants
  IC50: < 5 nM
CDK4
  IC50: 0.77 ± 0.007 nM
other
  melting point: 266 to 268 °C
MV4-11 cells
  apoptosis rate: 51.36%
BTK
  remaining activity at 0.15 µM: 97.1%
FLT1/VEGFR1; 0.15 μM, read-out: % Enzyme Activity (Relative to DMSO Controls) FLT1/VEGFR1
  remaining activity at 0.15 µM: 6.08%
FLT1/VEGFR1; Table 5 kinase profiling
  IC50: 12.4 ± 0.19 nM
Aurora B
  remaining activity at 0.15 µM: 55.3%
BRAF
  remaining activity at 0.15 µM: 77.6%
CHK2
  remaining activity at 0.15 µM: 38.4%
CDK1/cyclin B; 0.15 μM, read-out: % Enzyme Activity (Relative to DMSO Controls) CDK1/cyclin B
  remaining activity at 0.15 µM: 18.2%
CDK1/cyclin B; Table 5 kinase profiling
  IC50: 138 ± 1.24 nM
JAK2
  remaining activity at 0.15 µM: 32%
KDR/VEGFR2; 0.15 μM, read-out: % Enzyme Activity (Relative to DMSO Controls) KDR/VEGFR2
  remaining activity at 0.15 µM: 7.29%
KDR/VEGFR2; Table 5 kinase profiling
  IC50: 8.32 ± 0.54 nM
[1]; Table 5 kinase profiling, read-out: IC50 FLT3 (Y591-V592ins[…])
  IC50: 0.66 ± 0.08 nM
[1]; read-out: % Enzyme Activity (Relative to DMSO Controls) FLT3 (Y591-V592insVDFREYEYD), 0.15 μM, read-out: % Enzyme Activity (Relative to DMSO Controls) FLT3 (Y591-V592ins[…])
  remaining activity at 0.15 µM: 0.54%
CDK4/cyclin D1; 0.15 μM, read-out: % Enzyme Activity (Relative to DMSO Controls) CDK4/cyclin D1
  remaining activity at 0.15 µM: 1.56%
CDK4/cyclin D1; Table 5 kinase profiling
  IC50: 0.78 ± 0.04 nM
CDK7/cyclin H; 0.15 μM, read-out: % Enzyme Activity (Relative to DMSO Controls) CDK7/cyclin H
  remaining activity at 0.15 µM: 19.9%
CDK7/cyclin H; Table 5 kinase profiling
  IC50: 21.3 ± 1.01 nM
CDK6/cyclin D1; 0.15 μM, read-out: % Enzyme Activity (Relative to DMSO Controls) CDK6/cyclin D1
  remaining activity at 0.15 µM: 1.33%
CDK6/cyclin D1; Table 5 kinase profiling
  IC50: 0.59 ± 0.09 nM
CDK2/cyclin A; 0.15 μM, read-out: % Enzyme Activity (Relative to DMSO Controls) CDK2/cyclin A
  remaining activity at 0.15 µM: 4.01%
CDK2/cyclin A; Table 5 kinase profiling
  IC50: 2.56 ± 0.31 nM
FLT3 (ITD)-W51; 0.15 μM, read-out: % Enzyme Activity (Relative to DMSO Controls) FLT3 (ITD)-W51
  remaining activity at 0.15 µM: 0.51%
FLT3 (ITD)-W51; Table 5 kinase profiling
  IC50: 0.94 ± 0.09 nM
ABL1
  remaining activity at 0.15 µM: 81%
ERK7/MAPK15; 0.15 μM, read-out: % Enzyme Activity (Relative to DMSO Controls) ERK7/MAPK15
  remaining activity at 0.15 µM: 2.96%
ERK7/MAPK15; Table 5 kinase profiling
  IC50: 9.57 ± 0.23 nM
FGFR1
  remaining activity at 0.15 µM: 40%
GSK3β; 0.15 μM, read-out: % Enzyme Activity (Relative to DMSO Controls) GSK3b
  remaining activity at 0.15 µM: 8.65%
GSK3β; Table 5 kinase profiling
  IC50: 12 ± 1.2 nM
JNK1
  remaining activity at 0.15 µM: 39.2%

Reference: article PMC6887723, “Design and Synthesis of 4-(Heterocyclic Substituted Amino)-1H-Pyrazole-3-Carboxamide Derivatives and Their Potent Activity against Acute Myeloid Leukemia (AML)” (International Journal of Molecular Sciences, 2019)
